Patent publication EP4733310A1, “NOVEL PEPTIDE AND USE THEREOF” (Gemvax & Kael Co., Ltd., priority 2023, dated 2024)
Square brackets hold non-standard residues; d marks the D form. Peptide text beside a SMILES is read from it. pGlu = O=C1CC[C@@H](C(=O)O)N1

What was measured:
[1] = system: retinal pigment epithelial cells (ARPE-19); assay: Reactive oxygen species detection with DCF-DA in an H2O2 cell model of age-related macular degeneration; assay type: cell-based; conditions: ARPE-19, H2O2 (50 µM), FIG. 14
Description: (§1) A cell model of age-related macular degeneration was established by treating the retinal pigment epithelial cell line ARPE-19 with hydrogen peroxide (H2O2) to generate reactive oxygen species.
(§2) The experimental groups were set up according to Table 4 below, and the efficacy of GV2001 was evaluated.
Using 2',7'-dichlorofluorescin diacetate (DCF-DA), a dye for detecting reactive oxygen species, changes in reactive oxygen species levels in retinal pigment epithelial cells (ARPE-19) treated with GV2001 were examined under a fluorescence microscope.

[2] = Pharmacokinetic profile after subcutaneous administration to rats; assay type: in vivo; conditions: subcutaneous (SC), Sprague Dawley rats; FIG. 3
Description: (§3) To determine the pharmacokinetic profile of GV2001 prepared in Example 1, plasma was collected from rats administered with GV2001. The collected plasma was pretreated by protein precipitation using nine times the volume of methanol containing 0.1% formic acid, followed by centrifugation at 16,100 g for 10 minutes.
(§4) GV2001 and GV1001 were administered subcutaneously (SC) to three Sprague Dawley rats in each group. Blood samples were collected at 0.033, 0.083, 0.17, 0.25, 0.5, 1, and 2 hours after administration. The collected blood samples were centrifuged to separate plasma, pretreated, and analyzed using LC-MS. Pharmacokinetic parameters were calculated using the non-compartmental analysis model of Phoenix WinNonlin (Pharsight ver. 6.4, USA).

[3] = system: Aβ1-42; assay: Aβ1-42 ELISA of cerebral cortex protein samples; assay type: in vivo; conditions: 5xFAD mice, 2 mg/kg subcutaneous, 3 times/week, 8 weeks, FIG. 6
[4] = Pharmacokinetic profile after intravenous administration to rats; assay type: in vivo; conditions: Sprague Dawley rats, FIG. 2
Description: as §3
as §4, with “intravenously (IV)” for “subcutaneously (SC)”, “of the” for “of”, “(Pharsight,” for “(Pharsight”, “USA) program.” for “USA).”

[5] = Stability in human plasma (LC-MS, residual peptide); assay type: in vitro ADME; conditions: 5 µM, 37 °C, 10, 60 and 240 minutes, FIG. 1
Description: GV2001 and GV1001 were each added to human plasma and diluted to a concentration of 5 µM, followed by incubation at 37 °C for 10, 60, and 240 minutes with stirring. The reaction mixture was collected and pretreated by plasma protein precipitation using methanol containing 0.1% formic acid. The resulting supernatants were collected and analyzed by LC-MS under the conditions shown in Table 1 below to determine the percentage of residual peptide relative to the initial peptide amount.

[6] = system: microglia; assay: Anti-Iba-1 antibody staining of brain tissue sections (gliosis); assay type: in vivo; conditions: 5xFAD mice, 2 mg/kg subcutaneous, 3 times/week, 8 weeks, FIGS. 12 and 13
Description: (§5) An efficacy evaluation of GV2001 based on an Alzheimer's disease animal model was conducted according to Table 3 below.
(§6) 5xFAD mice are a well-established mouse model of Alzheimer's disease, in which amyloid-β is produced in neurons. Amyloid-β accumulation begins at approximately 2 months of age, neuronal damage progresses from around 6 months of age, and impairment in spatial learning ability develops from approximately 9 months of age. The mice were purchased from Jackson Laboratory, and seven-month-old mice obtained through breeding were used in the experiment.
Mouse brain tissue sections were stained with an anti-Iba-1 antibody, which stains microglia, to analyze the level of gliosis in the mouse brain.

[7] = system: IL-1β, IL-6, and TNF-α; assay: qRT-PCR of inflammatory cytokine mRNA in hippocampal samples; assay type: in vivo; conditions: 5xFAD mice, 2 mg/kg subcutaneous, 3 times/week, 8 weeks, FIG. 7
Description: as §5, §6
mRNA levels of cytokines involved in inflammation (IL-1β, IL-6, and TNF-α) were analyzed using qRT-PCR in mouse hippocampal samples.

[8] = system: amyloid-β plaques; assay: Thioflavin-S staining of brain tissue sections; assay type: in vivo; conditions: 5xFAD mice, 2 mg/kg subcutaneous, 3 times/week, 8 weeks
Description: as §5, §6
(§7) Mouse brain tissue sections were stained with thioflavin-S and anti-amyloid antibody (6E10) to identify amyloid-β plaques and amyloid-β protein, respectively.

[9] = system: amyloid-β protein; assay: Anti-amyloid antibody (6E10) staining of brain tissue sections; assay type: in vivo; conditions: 5xFAD mice, 2 mg/kg subcutaneous, 3 times/week, 8 weeks; both the cerebral cortex and hippocampus; FIGS. 10 and 11
Description: as §5, §6, §7

[10] = system: 5xFAD mice; assay: Morris Water Maze Test in an Alzheimer's disease mouse model; assay type: in vivo; conditions: 2 mg/kg subcutaneous, 3 times/week, 8 weeks
Description: An efficacy evaluation of GV2001 based on an Alzheimer's disease animal model was conducted according to Table 3 below. [TABLE 3] [table] 5xFAD mice are a well-established mouse model of Alzheimer's disease, in which amyloid-β is produced in neurons. Amyloid-β accumulation begins at approximately 2 months of age, neuronal damage progresses from around 6 months of age, and impairment in spatial learning ability develops from approximately 9 months of age. The mice were purchased from Jackson Laboratory, and seven-month-old mice obtained through breeding were used in the experiment. […] On day 11, a probe test was performed. […] In addition, the time spent in the target quadrant was increased in the GV1001 and GV2001 groups, confirming improvements in spatial learning ability (FIG. 4C).

[11] = system: retinal pigment epithelial cell line ARPE-19; assay: Epithelial-mesenchymal transition (cadherin 1, vimentin; confocal microscope) in an H2O2 cell model of age-related macular degeneration; assay type: cell-based; conditions: ARPE-19, H2O2 (50 µM), FIG. 15
Description: as §1, §2
The degree of epithelial-mesenchymal transition (EMT), which indicates retinal pigment epithelial cell degeneration, was evaluated by observing changes in cadherin 1, an epithelial cell marker, and vimentin, a mesenchymal cell marker, using a confocal microscope.

[12] = system: amyloid-β; assay: Immunoblot of hippocampal protein samples with anti-amyloid antibody (6E10); assay type: in vivo; conditions: 5xFAD mice, 2 mg/kg subcutaneous, 3 times/week, 8 weeks, FIG. 5
Description: as §5, §6
In order to determine amyloid-β levels in the brains of each group of mice, immunoblotting was performed on mouse hippocampal protein samples using an anti-amyloid antibody (6E10).

[13] = H2O2 for 2 hours then post-treatment for 24 hours, high-dose group
[14] = pretreatment for 2 hours then H2O2 for 24 hours, low-dose group

in vivo stability (remaining in the body without degradation) [2]: greater in vivo stability than GV1001
AUCt of GV2001 relative to GV1001 [4]: more than four times higher
AUC(0-t) ([4]; rat, plasma, sampling up to 2 hours): 107 ng·h/mL
SMILES: CC[C@H](C)[C@H](NC(=O)[C@H](Cc1ccccc1)NC(=O)[C@H](CCCNC(=N)N)NC(=O)[C@H](CC(C)C)NC(=O)[C@H](CCCNC(=N)N)NC(=O)[C@H](CO)NC(=O)[C@@H](NC(=O)[C@H](CC(C)C)NC(=O)[C@H](CC(C)C)NC(=O)[C@H](C)NC(=O)[C@@H]1CCCN1C(=O)[C@H](CCCNC(=N)N)NC(=O)[C@H](C)NC(=O)[C@H](CCC(=O)O)NC(=O)[C@@H]1CCC(=O)N1)[C@@H](C)O)C(=O)N1CCC[C@H]1C(=O)N[C@@H](CCCCN)C(N)=O [GV2001] ([pGlu]EARPALLTSRLRFIPK-NH2)
DCF-DA fluorescence expression (reactive oxygen species) [1, 13]: decreased
DCF-DA fluorescence expression (reactive oxygen species) [1, 14]: decreased
amyloid-β levels (Aβ1-42 ELISA) [3]: reduced level of amyloid-β protein
percentage of residual peptide relative to the peptide amount before reaction [5]: higher at each time point than that of GV1001
gliosis levels (microglia staining, anti-Iba-1) [6]: more pronounced decrease in gliosis levels
mRNA levels of cytokines involved in inflammation (IL-1β, IL-6, and TNF-α) [7]: greater reduction in cytokine expression compared to the 5xFAD group
amyloid-β plaque deposition (thioflavin-S) ([8]; cerebral cortex, FIG. 8): reduction in amyloid-β plaque deposition
amyloid-β plaque deposition (thioflavin-S) ([8]; hippocampus, FIG. 9): substantially reduced plaque deposition
amyloid-β protein levels (6E10 antibody staining) [9]: more pronounced decrease in amyloid-β protein levels
latency to locate the hidden platform ([10]; 10-day training period, FIG. 4A): marked improvements in latency
number of platform-zone crossings ([10]; probe test on day 11, FIG. 4B): exhibited improvements
time spent in the target quadrant ([10]; probe test on day 11, FIG. 4C): increased
progression of EMT (cadherin 1, vimentin) [11, 13]: reduced the progression of EMT
progression of EMT (cadherin 1, vimentin) [11, 14]: reduced the progression of EMT
amyloid-β levels (immunoblot, 6E10) [12]: reduction
